{"source": "patent US11427548B2", "about": "(Arvinas Operations, Inc., priority 2015, dated 2022)", "target": "T1, Androgen Receptor (Homo sapiens, UniProt P10275)", "T1 construct": "endogenous in cells; host or cells: VCaP cells", "T1 sequence (P10275 1-920)": "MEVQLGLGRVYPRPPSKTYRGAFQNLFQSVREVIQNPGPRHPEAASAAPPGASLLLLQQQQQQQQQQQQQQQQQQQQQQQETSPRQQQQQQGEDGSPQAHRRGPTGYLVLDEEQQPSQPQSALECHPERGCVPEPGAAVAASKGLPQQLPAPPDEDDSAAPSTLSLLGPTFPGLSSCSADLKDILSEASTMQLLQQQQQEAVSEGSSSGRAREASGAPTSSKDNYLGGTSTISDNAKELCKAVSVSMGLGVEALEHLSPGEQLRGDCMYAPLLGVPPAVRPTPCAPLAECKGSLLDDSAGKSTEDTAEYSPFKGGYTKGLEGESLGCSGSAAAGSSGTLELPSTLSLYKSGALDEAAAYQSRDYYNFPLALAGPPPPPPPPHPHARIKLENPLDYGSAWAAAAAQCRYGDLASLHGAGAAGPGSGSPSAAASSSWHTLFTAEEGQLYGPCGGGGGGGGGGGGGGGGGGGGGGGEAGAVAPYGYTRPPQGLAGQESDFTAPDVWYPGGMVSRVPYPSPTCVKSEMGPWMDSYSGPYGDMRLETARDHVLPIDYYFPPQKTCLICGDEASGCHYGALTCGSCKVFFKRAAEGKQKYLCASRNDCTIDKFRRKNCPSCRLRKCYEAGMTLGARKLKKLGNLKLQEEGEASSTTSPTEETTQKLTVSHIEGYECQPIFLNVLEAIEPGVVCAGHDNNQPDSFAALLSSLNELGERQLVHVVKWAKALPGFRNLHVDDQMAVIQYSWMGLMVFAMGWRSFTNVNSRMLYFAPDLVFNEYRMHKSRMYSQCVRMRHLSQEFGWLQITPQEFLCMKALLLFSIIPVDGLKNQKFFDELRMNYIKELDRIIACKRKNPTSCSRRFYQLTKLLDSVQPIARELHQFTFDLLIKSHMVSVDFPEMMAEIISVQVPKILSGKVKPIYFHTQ", "assay": "Androgen Receptor ELISA assay (PathScan AR ELISA) in VCaP cells: AR degradation, Dmax and DC50", "format": "cell-based", "method_in_brief": "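VCaP cells in phenol red-free RPMI with 5% charcoal-stripped FBS were grown at least 3 days, then given compound as 7 half-log doses in 0.1% DMSO with 0.1 nM R1881 for 24 h. Lysates went into a sandwich AR ELISA with TMB read at 450 nm.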", "key": {"[1]": {"conditions": "read-out: VCaP DC50; concentration that caused 50% Androgen Receptor degradation, VCaP cells (Table 32)"}, "[2]": {"conditions": "read-out: VCaP DC50; VCaP cells; Table 34"}, "[3]": {"conditions": "read-out: VCaP DC50; VCaP cells; Table 36"}, "[4]": {"conditions": "VCaP cells; Table 36; read-out: VCaP DC50"}, "[5]": {"conditions": "VCaP, VCaP cells; Table 36; read-out: VCaP Dmax (%)"}}, "note": "Like-named read-outs stand apart in the source and are kept apart here.", "data": [{"smiles": "CC(C)(C)[C@H](NC(=O)COCCCCNc1ccc(C(=O)N[C@H]2C(C)(C)[C@H](Oc3ccc(C#N)c(Cl)c3)C2(C)C)cc1)C(=O)N1C[C@H](O)C[C@H]1C(=O)NCc1ccc(-c2scnc2C2CC2)cc1", "note": "[Example 412]", "values": [{"measurement": "DC50", "setting": "VCaP cells; Table 34; read-out: VCaP DC50", "result": "< 50", "unit": "nM"}, {"measurement": "Dmax", "setting": "VCaP, VCaP cells; Table 34; read-out: VCaP Dmax (%)", "result": "51 to 70", "unit": "%"}]}, {"smiles": "CC(C)(C)[C@H](NC(=O)COCCCCOc1ccc(-c2ccc(N3C(=S)N(c4ccc(C#N)c(Cl)c4)C(=O)C3(C)C)cc2F)cc1)C(=O)N1C[C@H](O)C[C@H]1C(=O)NCc1ccc(-c2cnco2)cc1", "note": "[Example 109, (2S,4R)-1-[(2S)-2-{2-[4-(4-{4-[3-(3-chloro-4-cyanophenyl)-5,5-dimethyl-4-oxo-2-sulfanylideneimidazolidin-1-yl]-2-fluorophenyl}phen-oxy)butoxy]acetamido}-3,3-dimethylbutanoyl]-4-hydroxy-N-{[4-(1,3-oxazol-5-yl)phenyl]methyl}pyrrolidine-2-carboxamide]", "values": [{"measurement": "Dmax", "setting": "VCaP, read-out: VCaP Dmax (%)", "result": "> 71", "unit": "%"}, {"measurement": "DC50", "setting": "[1]", "result": "< 50", "unit": "nM"}]}, {"smiles": "CCOC(=O)c1ncsc1-c1ccc(CNC(=O)[C@@H]2C[C@@H](O)CN2C(=O)[C@@H](NC(=O)COCCCCOc2ccc(-c3ccc(N4C(=S)N(c5ccc(C#N)c(C(F)(F)F)c5)C(=O)C4(C)C)cc3)cc2)C(C)(C)C)cc1", "note": "[Example 414]", "values": [{"measurement": "Dmax", "setting": "VCaP, read-out: VCaP Dmax (%)", "result": "< 25", "unit": "%"}, {"measurement": "DC50", "setting": "[2]", "result": "< 50", "unit": "nM"}]}, {"smiles": "Cc1ncsc1-c1ccc([C@H](CO)NC(=O)[C@@H]2C[C@@H](O)CN2C(=O)[C@@H](NC(=O)CN2C3CCC2CN(CCCCc2ccc(C(=O)N[C@H]4C(C)(C)[C@H](Oc5ccc(C#N)c(Cl)c5)C4(C)C)cc2)C3)C(C)(C)C)cc1", "note": "[Example 836, (2S,4R)-1-((2S)-2-(2-(3-(4-(4-(((1r,3r)-3-(3-chloro-4-cyanophenoxy)-2,2,4,4-tetramethylcyclobutyl)carbamoyl)phenyl)butyl)-3,8-diazabicyclo[3.2.1]octan-8-yl)acetamido)-3,3-dimethylbutanoyl)-4-hydroxy-N-((R)-2-hydroxy-1-(4-(4-methylthiazol-5-yl)phenyl)ethyl) pyrrolidine-2-carboxamide]", "values": [{"measurement": "Dmax", "setting": "VCaP, read-out: VCaP Dmax (%)", "result": "> 71", "unit": "%"}, {"measurement": "DC50", "setting": "[3]", "result": "< 50", "unit": "nM"}]}, {"smiles": "CC(C)[C@H](C(=O)N1C[C@H](O)C[C@H]1C(=O)NCc1ccc(Cl)cc1)N1Cc2ccc(N3CCN(CCCc4ccc(C(=O)N[C@H]5C(C)(C)[C@H](Oc6ccc(C#N)c(C(F)(F)F)c6)C5(C)C)cc4)CC3)cc2C1=O", "note": "[Example 769, (2S,4R)-N-(4-chlorobenzyl)-1-((R)-2-(6-(4-(3-(4-(((1r,3r)-3-(4-cyano-3-(trifluoromethyl)phenoxy)-2,2,4,4-tetramethylcyclobutyl)carbamoyl)phenyl)propyl)piperaizn-1-yl)-1-oxoisoindolin-2-yl)-3-methylbutanoyl)-4-hydroxypyrrolidine-2-carboxamide]", "values": [{"measurement": "DC50", "setting": "[4]", "result": "> 501", "unit": "nM"}, {"measurement": "Dmax", "setting": "[5]", "result": "< 25", "unit": "%"}]}, {"smiles": "CC(C)(C)[C@H](NC(=O)COCCCOCCCCOc1ccc(N2C(=S)N(c3ccc(C#N)c(C(F)(F)F)c3)C(=O)C2(C)C)cc1)C(=O)N1C[C@H](O)C[C@H]1C(=O)NCc1ccc(-c2cncs2)cc1", "note": "[Example 33, (2S,4R)-1-[(2S)-2-(2-{3-[4-(4-{3-[4-cyano-3-(trifluoromethyl)phenyl]-5,5-dimethyl-4-oxo-2-sulfanylideneimidazolidin-1-yl}phenoxy)butoxy]propoxy}acetamido)-3,3-dimethylbutanoyl]-4-hydroxy-N-{[4-(1,3-thiazol-5-yl)phenyl]methyl}pyrrolidine-2-carboxamide]", "values": [{"measurement": "Dmax", "setting": "VCaP, read-out: VCaP Dmax (%)", "result": "51 to 70", "unit": "%"}, {"measurement": "DC50", "setting": "read-out: VCaP DC50; concentration that caused 50% Androgen Receptor degradation, VCaP cells", "result": "< 50", "unit": "nM"}]}, {"smiles": "Cc1ncsc1-c1ccc(CNC(=O)[C@@H]2C[C@@H](O)CN2C(=O)[C@@H](NC(=O)COCCCCOCCCCOc2cccc(N3C(=S)N(c4ccc(C#N)c(C(F)(F)F)c4)C(=O)C3(C)C)c2)C(C)(C)C)cc1", "note": "[Example 320]", "values": [{"measurement": "Dmax", "setting": "VCaP, read-out: VCaP Dmax (%)", "result": "26 to 50", "unit": "%"}, {"measurement": "DC50", "setting": "[2]", "result": "< 50", "unit": "nM"}]}, {"smiles": "Cc1ncsc1-c1ccc([C@H](C)NC(=O)[C@@H]2C[C@@H](O)CN2C(=O)[C@@H](NC(=O)COCCN2CCN(Cc3cc(C(=O)N[C@@H](C)Cn4ccc(-c5ccc(C#N)c(Cl)c5)n4)n[nH]3)CC2)C(C)(C)C)cc1", "note": "[Example 790, N-((S)-1-(3-(3-chloro-4-cyanophenyl)-1H-pyrazol-1-yl)propan-2-yl)-5-((4-(2-(2-(((S)-1-((2S,4R)-4-hydroxy-2-(((S)-1-(4-(4-methylthiazol-5-yl)phenyl)ethyl)carbamoyl)pyrrolidin-1-yl)-3,3-dimethyl-1-oxobutan-2-yl)amino)-2-oxoethoxy)ethyl)piperazin-1-yl)methyl)-1H-pyrazole-3-carboxamide]", "values": [{"measurement": "DC50", "setting": "[4]", "result": "> 501", "unit": "nM"}, {"measurement": "Dmax", "setting": "[5]", "result": "26 to 50", "unit": "%"}]}, {"smiles": "Cc1ncsc1-c1ccc(CNC(=O)[C@@H]2C[C@@H](O)CN2C(=O)[C@@H](NC(=O)COCCCCOc2ccc(-c3ccc(N4C(=S)N(c5ccc(C#N)c(C(F)(F)F)c5)C(=O)C4(C)C)c(F)c3)cc2)C(C)(C)C)cc1", "note": "[Example 118, (2S,4R)-1-[(2S)-2-(2-{4-[4-(4-{3-[4-cyano-3-(trifluoromethyl)phenyl]-5,5-dimethyl-4-oxo-2-sulfanylideneimidazolidin-1-yl}-3-fluorophenyl)phen-oxy]butoxy}acetamido)-3,3-dimethylbutanoyl]-4-hydroxy-N-{[4-(4-methyl-1,3-thiazol-5-yl)phenyl]methyl}pyrrolidine-2-carboxamide]", "values": [{"measurement": "Dmax", "setting": "VCaP, read-out: VCaP Dmax (%)", "result": "> 71", "unit": "%"}, {"measurement": "DC50", "setting": "[1]", "result": "< 50", "unit": "nM"}]}, {"smiles": "Cc1ncsc1-c1ccc([C@H](C)NC(=O)[C@@H]2C[C@@H](O)CN2C(=O)[C@H](C(C)C)n2cc(-c3ccnc(OC4CN(c5ncc(C(=O)NC6C(C)(C)C(Oc7ccc(C#N)c(Cl)c7)C6(C)C)cn5)C4)c3)cn2)cc1", "note": "(stereo partly drawn) [Example 604, N-(3-(3-chloro-4-cyanophenoxy)-2,2,4,4-tetramethylcyclobutyl)-2-(3-((4-(1-((S)-1-((2S,4R)-4-hydroxy-2-(((S)-1-(4-(4-methylthiazol-5-yl)phenyl)ethyl)carbam-oyl)pyrrolidin-1-yl)-3-methyl-1-oxobutan-2-yl)-1H-pyrazol-4-yl)pyridin-2-yl)oxy)azetidin-1-yl)pyrimidine-5-carboxamide]", "values": [{"measurement": "DC50", "setting": "[4]", "result": "< 50", "unit": "nM"}, {"measurement": "Dmax", "setting": "VCaP, read-out: VCaP Dmax (%), VCaP cells; Table 36", "result": "51 to 70", "unit": "%"}]}, {"smiles": "Cc1ncsc1-c1ccc(CNC(=O)[C@@H]2C[C@@H](O)CN2C(=O)[C@@H](NC(=O)COCC2CCN(c3ccc(-c4ccc(N5C(=S)N(c6ccc(C#N)c(C(F)(F)F)c6)C(=O)C5(C)C)cc4)cn3)CC2)C(C)(C)C)cc1", "note": "[Example 420]", "values": [{"measurement": "Dmax", "setting": "VCaP, read-out: VCaP Dmax (%)", "result": "51 to 70", "unit": "%"}, {"measurement": "DC50", "setting": "read-out: VCaP DC50; VCaP cells; Table 35", "result": "51 to 500", "unit": "nM"}]}, {"smiles": "Cc1ncsc1-c1ccc([C@H](C)NC(=O)C2C[C@@H](O)CN2C(=O)[C@@H](NC(=O)COCCN2CCCN(c3ccc(C(=O)N[C@H]4C(C)(C)[C@H](Oc5ccc(C#N)c(Cl)c5)C4(C)C)cn3)CC2)C(C)(C)C)cc1", "note": "(stereo partly drawn) [Example 782, N-((1r,3r)-3-(3-chloro-4-cyanophenoxy)-2,2,4,4-tetramethylcyclobutyl)-6-(4-(2-(2-(((S)-1-((2S,4R)-4-hydroxy-2-(((S)-1-(4-(4-methylthiazol-5-yl)phenyl)ethyl)carbamoyl)pyrrolidin-1-yl)-3,3-dimethyl-1-oxobutan-2-yl)amino)-2-oxoethoxy)ethyl)-1,4-diazepan-1-yl)nicotinamide]", "values": [{"measurement": "DC50", "setting": "[4]", "result": "< 50", "unit": "nM"}, {"measurement": "Dmax", "setting": "[5]", "result": "> 71", "unit": "%"}]}, {"smiles": "Cc1ncsc1-c1ccc(CNC(=O)[C@@H]2C[C@@H](O)CN2C(=O)C(C(C)C)n2cc(Oc3cccc(OCCCCCOc4ccc(N5C(=S)N(c6ccc(C#N)c(C(F)(F)F)c6)C(=O)C5(C)C)cc4)c3)cn2)cc1", "note": "(stereo in doubt) [Example 602, (2S,4R)-1-((R)-2-(4-(3-((5-(4-(3-(4-cyano-3-(trifluoromethyl)phenyl)-5,5-dimethyl-4-oxo-2-thioxoimidazolidin-1-yl)phenoxy)pentyl)oxy)phenoxy)-1H-pyrazol-1-yl)-3-methylbutanoyl)-4-hydroxy-N-(4-(4-methylthiazol-5-yl)benzyl)pyrrolidine-2-carboxamide]", "values": [{"measurement": "DC50", "setting": "[3]", "result": "> 501", "unit": "nM"}]}]}
